Assays:
[1] = test system: human subjects suffering from dermatitis; assay: Clinical treatment of dermatitis/eczema with topical cream, Investigator's Global Assessment (IGA); assay type: in vivo; conditions: 7% topical cream twice per day, 3-4 weeks, vs area treated with cream base alone
Source text: To test the effect of the compounds on treatment of human dermatologic disorders associated with increased CXCL10 production by keratinocytes, Compound 97 and Compound 98 were formulated with stearic acid, lanolin (anhydrous), mineral oil and triethanolamine into a topically applied cream at a concentration of 7%. The compounds in the cream base were applied topically twice per day to human subjects suffering from dermatitis in an area of the skin with active skin lesions for 3-4 weeks. The control was the topical cream base composition without the active compounds. Outcome was measured by an experienced clinical observer as assessed by visible reduction or disappearance of the lesions as assessed in the treated area vs the control area treated only with the cream base alone using Investigator's Global Assessment (IGA) scale.

[2] = test system: CXCL10; assay: CXCL10 levels in retina tissue of STZ diabetic rats, topical eye drops; assay type: in vivo; conditions: eye drops 1-5%, 20 μL three times per day, 30 days, retina homogenate ELISA, vs control eye
Source text: CXCL10 expression is associated with age related and diabetes induced retinopathy. A hallmark of these retinopathies is retinal vascular leakage (i.e. increased retinal vascular permeability) thought to induced by CXCL10. To test the in vivo effect of the compounds on treatment of retinopathies associated with increased CXCL10 levels, diabetes was induced in rats by treatment with Streptozotocin (STZ) according established methods (Akbarzadeh et al, J Clin Biochem. 2007 September; 22(2): 60-64) Testing began once the diabetes had been established in the animals. Compounds were formulated into a topically applied eye drop solution containing 1-5% of compounds 91 and 108 along with ethylene glycol, sodium lauryl sulfate, hyaluronic acid, and sterile water at pH 7.0. […] CXCL10 expression was measured in retina tissue homogenate and retinal vascular permeability was assayed using the measurement of leakage of Evans Blue dye from retinal vessels, a well-established method (Invest Ophthalmol Vis Sci 2001 March; 42: 789-794).

Row | Structure (SMILES) | dermatitis/eczema lesions, Investigator's Global Assessment (IGA) [1] | amount of CXCL10 produced by the retina [2]
1 | Cc1c(OCC(F)(F)F)ccnc1C[S+]([O-])c1nc2ccccc2[nH]1 (stereo not shown) [Compound 97] | pronounced effect on reducing the dermatitis/eczema | 
2 | COc1ccnc(C[S+]([O-])c2nc3cc(OC(F)F)ccc3[nH]2)c1OC (stereo not shown) [Compound 108] |  | significant reduction
3 | COCCCOc1ccnc(C[S+]([O-])c2nc3ccccc3[nH]2)c1C (stereo not shown) [Compound 98] | pronounced effect on reducing the dermatitis/eczema | 
4 | COc1ccc2[nH]c([S+]([O-])Cc3ncc(C)c(OC)c3C)nc2c1 (stereo not shown) [Compound 91] |  | significant reduction
